# In patent US20080255213A1, “THIAZOLIDINONE AMIDES, THIAZOLIDINE CARBOXYLIC ACID AMIDES, AND SERINE AMIDES, INCLUDING POLYAMINE CONJUGATES THEREOF, AS SELECTIVE ANTI-CANCER AGENTS” (University of Tennessee Research Foundation, priority 2007, published 2008):
# What was measured:
# [1] = test system: SK-MEL-188 melanoma cell line; test: Sulforhodamine B (SRB) cytotoxicity assay, SK-MEL-188; format: cell-based; conditions: Homo sapiens, 48 h exposure, diastereomeric mixtures, value ± standard error, read-out: IC50 ± SEM SK-MEL-188 (converted)
# Experimental: (§1) Cytotoxicity of these newly synthesized compounds was examined in two human melanoma cell lines (SK-MEL-188 and WM-164) and in a fibroblast cell line. Activity on fibroblast cells was used as a control to determine the selectivity of these compounds against melanoma. Standard sulforhodamine B (SRB) assay was used. Cells were exposed to a wide range of concentrations for 48 h in round-bottom 96-well plates. Cells were fixed with 10% trichloroacetic acid and washed five times with water. After cells were air-dried overnight and stained with SRB solution, total proteins were measured at 560 nm with a plate reader. IC50 (i.e., concentration which inhibited cell growth by 50% of DMSO-treated controls) values were obtained by nonlinear regression analysis with GraphPad Prism (GraphPad Software, San Diego, Calif.).
# (§2) The ability of thiazolidine derivatives to inhibit the growth of two melanoma cancer cell lines and fibroblast cells is summarized in Table 1. […] At this early stage, all compounds were used as a diastereomeric mixture if they contain chiral centers in order to select the most promising compounds for further development.
# melanoma cells = test: SRB cytotoxicity assay, statements not tied to one cell line; format: cell-based, human
# Experimental: as §1, §2
# [2] = test system: WM-164 melanoma cell line; test: Sulforhodamine B (SRB) cytotoxicity assay, WM-164; format: cell-based; conditions: Homo sapiens, WM164, 48 h exposure, diastereomeric mixtures, value ± standard error, read-out: IC50 ± SEM WM-164 (converted)
# Experimental: as §1, §2
# fibroblast cell line = test: Sulforhodamine B (SRB) cytotoxicity assay, fibroblast control; format: cell-based; conditions: 48 h exposure, control for selectivity, value ± standard error, read-out: IC50 ± SEM Fibroblast (converted)
# Experimental: as §1, §2
smiles,measurement,setting,value
"CNC(=O)c1cc(Oc2ccc(NC(=O)Nc3ccc(Cl)c(C(F)(F)F)c3)cc2)ccn1 [Sorafenib, reference compound]",IC50,[1],4.3 ± 0.2 µM
same,selectivity: ratio of IC50 values for fibroblast cells over melanoma cells,melanoma cells; fibroblast IC50 / melanoma IC50,> 25
same,potency against melanoma cells relative to compound 317 (times less potent),melanoma cells; versus compound 317,about 10 times
same,IC50,[2],4.7 ± 0.3 µM
same,IC50,fibroblast cell line,> 100 µM
